Source: US20220326244A1, “METHODS FOR DIAGNOSIS, PROGNOSIS, AND TREATMENT OF CANCER” (The Boardof Trustees of the Leland Stanford Junort …, priority 2019, published 2022)

Tests used:
[1] = system: NK-92 cells; assay: PMA-stimulated degranulation and intracellular cytokine production of NK-92 cells (CyTOF); format: cell-based, human; conditions: mono- and coculture; PMA 4 h exposure
Text: Intracellular cytokine production of CD9+ and CD9− NK-92 cells. One of the mechanisms by which dNK cells exert immune tolerance is through poor cytotoxic responses and secretion of a specific set of cytokines. Thus, we hypothesized that trogocytosis and the acquisition of CD9 by NK-92 cells endows them with features of immune tolerance. Therefore, we measured the intracellular expression levels of cytolytic proteins (perforin and granzyme B), anti-tumor cytokines ([…], TNFα, GM-CSF, IFNγ), the proangiogenic cytokine IL-8, the immunosuppressive cytokine IL-10, and CD107a, a marker for degranulation in both CD9+ and CD9− NK-92 cells after coculture with HGSC cells lines. Specifically, we measured NK-92 cell function before and after coculture in response to phorbol-12-myristate-13-acetate (PMA). Exposing cocultures to PMA circumvents upstream NK receptor signaling and is a convenient method for measuring NK cell function. In a pilot study, we determined that a coculture time of 6 h produced the most robust intracellular cytokine production (ICP). Therefore, NK-92 and HGSC cell lines were cocultured for 6 h in the presence of PMA (4 h exposure) with brefeldin A and monensin added to block secretion (Materials and Methods). For all experiments, we used two positive controls. […]

[2] = system: Kuramochi (EV) cell line; assay: Carboplatin exposure of HGSC cell line, CyTOF with tumor NK receptor ligand/ADAM antibody panel; format: cell-based; conditions: for frequency of cells expressing nectin 4: baseline 15%
Procedure: (§1) FIG. 4. Responses to carboplatin across E, EV and V HGSC cell lines. OVCAR4 (E), Kuramochi (EV) and TYK-nu (V) cell lines exposed to vehicle or carboplatin at 0.5 or 1 μg/ml for 1 week were processed for CyTOF with the tumor NK receptor ligand/ADAM antibody panel. The parent population is defined as viable single cells negative for cisplatin and cPARP. The plots show frequencies of HGSC cells expressing activating and inhibitor NK receptor ligands (X-axis) gated out of the parent population (Y-axis). Plots show the mean of triplicates with standard deviations. p-values: *≤0.05, **≤0.005, for overall ANOVA.
(§2) Changes in NK receptor ligand expression levels in response to carboplatin. It is well established that activation of the DNA damage response with genotoxic agents increases the expression of ligands for NKG2D and DNAM1 thereby making a “stressed” cell more susceptible to NK cell killing. We therefore exposed the three HGSC cell lines to carboplatin, a genotoxic agent that is part of the standard-of-care regimen for women with HGSC. After one week, the HGSC cell lines were processed for CyTOF using the tumor/NK receptor ligand antibody panel (Table 12).
(§3) Sample Processing and Antibody Staining for CyTOF. Frozen, fixed single-cell suspensions of HGSC tumors or cell lines were thawed at room temperature. For each sample, 1×10^6 cells were aliquoted into cluster tubes in 96 well plates and subjected to pre-permeabilization palladium barcoding. After barcoding, pooled cells were pelleted and incubated for 10 min at room temperature with FcX block (Biolegend) to block non-specific antibody binding. Cells were then incubated with antibodies against surface markers for 45 min at room temperature. Cells were permeabilized at 4° C. with methanol or 1× Permeabilization Buffer (eBioscience) (only for the CyTOF antibody panel designed to characterize intracellular cytokines, on ice for 10 min. Cells were subsequently stained with antibodies against intracellular markers for 1 h at room temperature, washed, and incubated with the ^191/193Ir DNA intercalator (Fluidigm) at 4° C. overnight. Cells were washed and resuspended in a solution of normalization beads before introduction into the CyTOF 2.

[3] = system: OVCAR4 (E) cell line; assay: as above; format: cell-based; conditions: for frequency of cells expressing nectin 4: OVCAR4, 1 week
Procedure: as §1, §2, §3

[4] = system: TYK-nu (V) cell line; assay: as above; format: cell-based; conditions: for frequency of cells expressing nectin 4: baseline 6%
Procedure: as §1, §2, §3

[5] = system: HGSC cell lines (OVCAR4, Kuramochi, TYK-nu); assay: Carboplatin exposure of the three HGSC cell lines, CyTOF (stated for all lines together); format: cell-based
Procedure: as §1, §2
Sample Processing and Antibody Staining for CyTOF. Frozen, fixed single-cell suspensions of HGSC tumors or cell lines were thawed at room temperature. […]

[6] = system: NK-92 cells cocultured with OVCAR4, Kuramochi and TYK-nu HGSC tumor cell lines; assay: Trogocytosis inhibition: CD9 acquisition by NK-92 cells in coculture with HGSC cell lines; format: cell-based, human
Procedure: To further confirm that the mechanism of CD9 acquisition by NK-92 cells was through trogocytosis we performed an additional series of experiments. Many studies have shown that inhibitors of actin polymerization block trogocytosis but that the effect of these inhibitors vary depending on the cell type.
(§4) Trogocytosis inhibition. NK-92 cells were pre-treated with cytochalasin D (10 μM in complete media) for 2 h. They were then co-cultured with cancer cell lines as indicated in a ratio of 1:1 in the continuous presence of cytochalasin D for a further 2 h after which cells were stained with antibodies against CD9, CD45 and processed prior to CyTOF analysis as described above.

[7] = system: NK-92 cells cocultured with non-HGSC tumor cell lines; assay: Trogocytosis inhibition: CD9 uptake by NK-92 cells in coculture with non-HGSC cell lines; format: cell-based, human
Text: Evaluation of NK-92 trogocyctosis from non-HGSC cell lines. In order to determine whether NK-92 CD9 trogocytosis was a feature of non-HGSC tumor cells, we established the frequency of CD9-expressing cells in 15 non-HGSC as well as 11 HGSC tumor cell lines (FIG. 6A). The frequency and levels of CD9-expressing tumor cells varied across the cell lines and are presented going from highest to lowest CD9 levels (FIGS. 6A and B). […] We therefore chose three non-HGSC tumor cell lines with high CD9 expression (HCT116, A431 and MCF7) and three with lower CD9 expression (HeLa, CaCo-2 and HepG2) for trogocytosis experiments (FIG. 6B). NK-92 trogocytosis from non-HGSC cell lines was highly varied, not correlated to CD9 levels and, aside from the HCT116 colorectal cancer cell line, less pronounced than from the HGSC cell lines (FIGS. 5C and 6C).
as §4

Structure (SMILES): CCCCCCCCCCCCCC(=O)O[C@@H]1[C@@H](C)[C@@]2(O)[C@@H](C=C(CO)C[C@]3(O)C(=O)C(C)=C[C@@H]23)[C@@H]2C(C)(C)[C@]12OC(C)=O [PMA, phorbol-12-myristate-13-acetate]
- NK-92 cell degranulation (CD107a) and production of MIP1a [1]: robust responses

Structure (SMILES): N.N.O=C([O-])C1(C(=O)[O-])CCC1.[Pt+2] [carboplatin]
- frequency of cells expressing HLA-E ([2]; Kuramochi, after carboplatin 1 week): significant increases
- frequency of cells expressing nectin 4 ([2]; Kuramochi, first listed of two carboplatin doses): 22%
- frequency of cells expressing nectin 4 ([2]; Kuramochi, second listed of two carboplatin doses): 23%
- frequency of Kuramochi cells expressing HLA-ABC ([2]; after carboplatin 1 week): significant increase
- frequency of cells expressing HLA-E ([3]; OVCAR4, after carboplatin 1 week): significant increases
- frequency of cells expressing nectin 4 ([3]; first listed of two carboplatin doses (0.5 or 1 μg/ml), baseline 24%): 39%
- frequency of cells expressing nectin 4 ([3]; second listed of two carboplatin doses (0.5 or 1 μg/ml), baseline 24%): 45%
- frequency of OVCAR4 cells expressing ULBP2 ([3]; after carboplatin (0.5 or 1 μg/ml, 1 week), baseline 24%): 50%
- frequency of cells expressing HLA-E ([4]; TYK-nu, after carboplatin 1 week): significant increases
- frequency of cells expressing nectin 4 ([4]; TYK-nu, first listed of two carboplatin doses): 9%
- frequency of cells expressing nectin 4 ([4]; TYK-nu, second listed of two carboplatin doses): 9%
- CD111 in TYK-nu cells ([4]; after carboplatin 1 week): significant increase
- proportion of HGSC tumor cells that expressed NK inhibitory receptor ligands ([5]; all three cell lines, after carboplatin): increased
- DNA damage response: pH2AX ([5]; carboplatin 0.5 or 1 μg/ml for 1 week): increase

Structure (SMILES): C=C1[C@@H](C)[C@H]2[C@H](Cc3ccccc3)NC(=O)[C@]23[C@H](OC(C)=O)/C=C/[C@@](C)(O)C(=O)[C@@H](C)C/C=C/[C@H]3[C@@H]1O [cytochalasin D]
- reduction of CD9+ NK-92 cells ([6]; NK-92 pre-incubated 2 h with cytochalasin D, coculture in its presence with OVCAR4, Kuramochi and TYK-nu): 40-69%
- inhibition of trogocytosis (HGSC cell line coculture) ([6]; pre-incubation of NK-92 cells with cytochalasin D (10 μM)): partial inhibition
- CD9 uptake in NK-92 ([7]; non-HGSC cell lines, most marked for HCT116, MCF7 and CaCo2): partially inhibited
- inhibition of trogocytosis (non-HGSC cell coculture) ([7]; preincubation of NK-92 cells with cytochalasin D (10 μM)): partial inhibition
